Molecular target: T1, human liver FBPase (Homo sapiens, UniProt P09467)
T1 construct: made in house; host or cells: E. coli
T1 sequence (P09467 2-338 limits assumed): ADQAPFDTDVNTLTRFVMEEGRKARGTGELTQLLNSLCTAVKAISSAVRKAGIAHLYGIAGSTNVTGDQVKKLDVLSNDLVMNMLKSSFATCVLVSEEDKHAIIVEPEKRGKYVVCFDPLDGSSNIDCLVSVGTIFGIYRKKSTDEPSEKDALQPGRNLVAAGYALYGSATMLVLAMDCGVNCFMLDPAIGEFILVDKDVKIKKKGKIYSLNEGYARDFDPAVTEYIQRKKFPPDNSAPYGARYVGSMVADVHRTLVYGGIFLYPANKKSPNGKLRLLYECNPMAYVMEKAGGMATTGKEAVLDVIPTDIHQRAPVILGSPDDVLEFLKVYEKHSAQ
Assay: FBPase assay (inorganic phosphate release, malachite green)
Type: biochemical
Conditions: recombinant human liver FBPase, 50 μM fructose-1,6-bisphosphate, read-out at 620 nm
Procedure: The following tests were carried out for evaluating the inhibitory activity of the compounds of the present invention against human liver FBPase (Swissprot Data base reference PO9467, entry F16P_HUMAN).
Enzyme preparation: Human liver FBPase cDNA (NM_000507) was purchased from Origene Technologies, Inc, subcloned in a vector for expression in E. Coli., and sequenced. Recombinant human liver FBPase (hlFBPase) was purified according to the following protocol that uses heat denaturation similarly to that described by El-Maghrabi et. al. [El-Maghrabi, M. R. et al. “Isolation of a human liver fructose-1,6-bisphosphatase cDNA and expression of the protein in Escherichia coli.” J Biol Chem 268:9466-9472, 1993.]. […] Purity of the enzyme preparation was >90% as assessed by Mass spectrometry.
In vitro activity: Recombinant human liver FBPase (hlFBPase) activity was assayed through measuring the inorganic phosphate release that results from the hydrolysis of Fructose-1,6-bisphosphate by the enzyme. […] Anal. Biochem., 171:266-270, 1988], inorganic phosphate can be readily quantified by spectrophotometry at 620 nm after complexation with ammonium molybdate/malachite green reagent. […] Under these conditions, the assay was linear with time and able to detect FBPase inhibition after spectrophotometric read-out at 620 nm.

IC50 | SMILES
250 nM | Cc1cccc(S(=O)(=O)NC(=O)Nc2ncc(Br)s2)c1 [Example 5, N-[(5-Bromo-1,3-thiazol-2-yl)carbamoyl]-3-methylbenzenesulfonamide]
65 nM | COc1ccc(-c2sc(S(=O)(=O)NC(=O)Nc3ncc(Br)s3)cc2C)cc1 [Example 52, N-[(5-Bromo-1,3-thiazol-2-yl)carbamoyl]-5-(4-methoxyphenyl)-4-methyl-thiophene-2-sulfonamide]
